According to patent US12565467B2, “Compounds, compositions, and methods for the treatment of inflammatory, degenerative, and neurodegenerative diseases” (Board of Supervisors of Louisiana State University and …, priority 2015, dated 2026):

What was measured:
[1] = system: neuronal cells in primary cultures; assay: NMDA-induced toxicity in neuronal cells in primary culture, MTT assay for cell viability; format: cell-based
Excerpt: FIG. 11. […] In several neurological and neurodegenerative diseases, such as stroke, epilepsy, status epilepticus, traumatic head injury, etc., as well as ophthalmological diseases, such as glaucoma, an excessive presynaptic release of the excitatory neurotransmitter glutamate takes place. As a consequence, glutamate transporters that function to remove extracellular glutamate from astrocytes and neurons are overwhelmed and the NMDA-type glutamate receptor is over-activated. This receptor is a calcium channel that therefore leads to a flooding of calcium into the postsynaptic cell. The overall phenomena is refer to as excitotoxicity that in turn leads to neuronal damage and cell death. MK801 is a known blocker of this receptor used here as a control.
In several neurological and neurodegenerative diseases, such as stroke, epilepsy, status epilepticus, traumatic head injury, etc., as well as ophthalmological diseases, such as glaucoma, an excessive presynaptic release of the excitatory neurotransmitter glutamate takes place. As a consequence, glutamate transporters that function to remove extracellular glutamate from astrocytes and neurons are overwhelmed and the NMDA-type glutamate receptor is over-activated. This receptor is a calcium channel that therefore leads to a flooding of calcium into the postsynaptic cell. The overall phenomena is refer to as excitotoxicity that in turn leads to neuronal damage and cell death. MK801 is a known blocker of this receptor used here as a control.

Bcl2 = Bcl2 protein in RPE (LOX-D / ARPE-19) cells under oxidative stress; format: cell-based, human
Excerpt: FIG. 9. (A) VLC-PUFA and elovanoids ELV1 and ELV2 mediated effect on Bcl2 upregulation in ARPE-19 cells under stress. In this experiment we tested the effect of elovanoid precursors on Bcl2 upregulation along with VLC-PUFA in stressed RPE. (B) Quantification of Bcl2 upregulation by NPD1, ELV1 and ELV2 in LOX-D cells. Bcl2 is an important antiapoptotic protein of the Bcl2 family protein.
FIG. 9—(A) VLC-PUFA and elovanoids ELV1 and ELV2 mediated effect on Bcl2 upregulation in ARPE-19 cells under stress. In this experiment we tested the effect of elovaniod precursors on Blc2 upregulation along with VLC-PUFA in stressed RPE. (B) Quantification of Bcl2 upregulation by NPD1, ELV1 and ELV2 in LOX-D cells. Bcl2 is an important antiapoptotic protein of the Bcl2 family protein.

ARPE-19 cells = assay: Oxidative stress induced apoptosis / cell death in ARPE-19 cells; format: cell-based, human; settings: for concentration dependent cytoprotection (FIG. 5C): ARPE-19 under OS
Description: FIG. 5. (A) Effect of PD146176 on VLC-PUFA-inhibited apoptosis induced by OS in ARPE-19 cells. […] It is evident that 32:6 and 34:6 LCAF were able to induce a substantial amount (55 and 48% respectively) of neuroprotection compared to PD 146176 (22%) when the stressed cells were treated with 5 μm of 15-LOX-D1 inhibitor. It can be concluded that since PD146176 is the inhibitor of 15-lipooxygenase enzyme, it might be protecting the stressed RPE cells by accumulating neuroprotective agents inside the cells. (B) Comparison of cytoprotective capacities of NPD1, C32:6 and C34:6 VLC-PUFA on oxidative stress-induced apoptosis in 15-LOX-1 cells. Shown here is the comparison of neuroprotection in a 15-LOX-1-deficient cell line under oxidative stress with 32:6 and 34:6 VLC-PUFA along with NPD1. 32:6 and 34:6 LCAF were able to induce neuroprotection (45% and 40% respectively), as compared to oxidative stress (90%) under this condition. (C) Concentration dependent cytoprotection by C32:6 and C34:6 VLC-PUFA in oxidative-stress induced ARPE-19 cells. A concentration (50-500 nM) kinetic of cytoprotection induced by LCAF 32:6 and 34:6 in RPE cell culture under OS was shown here. […] We decided to use 250 nM concentrations of 32:6 and 34:6 LCAF in subsequent experiments. (D) Selected images of alive and dead cells from this study (control, OS, treatment with C32:6).
FIG. 5—(A) Effect of PD146176 on VLC-PUFA inhibited apoptosis induced by OS in ARPE-19 cells. […] It is evident that 32:6 and 34:6 LCAF were able to induce a substantial amount (55 and 48% respectively) of neuroprotection compared to PD 146176 (22%) when the stressed cells were treated with 5 μm of 15-LOX-D1 inhibitor. It can be concluded that since PD146176 is the inhibitor of 15-lipooxygenase enzyme, it might be protecting the stressed RPE cells by accumulating neuroprotective agents inside the cells. (B) Comparison of cytoprotective capacities of NPD1, C32:6 and C34:6 VLC-PUFA on oxidative stress-induced apoptosis in 15-LOX-1 cells. Shown here is the comparison of neuroprotection in a 15-LOX-1-deficient cell line under oxidative stress with 32:6 and 34:6 VLC-PUFA along with NPD1. 32:6 and 34:6 VLC-PUFA were able to induce neuroprotection (45% and 40% respectively), as compared to oxidative stress (90%) under this condition. (C) Concentration dependent cytoprotection by C32:6 and C34:6 VLC-PUFA in oxidative-stress induced ARPE-19 cells. A concentration (50-500 nM) kinetic of cytoprotection induced by VLC-PUFA 32:6 and 34:6 in RPE cell culture under OS was shown here. […] We decided to use 250 nM concentrations of 32:6 and 34:6 VLC-PUFA in subsequent experiments. (D) Selected images of alive and dead cells from this study (control, OS, treatment with C32:6).

SMILES: CC/C=C\C[C@H](O)\C=C/C=C/C=C/[C@H](O)C/C=C\C/C=C\CCCCCCCCCCCCCCC(=O)O [ELV2, (16Z,19Z,22R,23E,25E,27Z,29S,31Z)-22,29-dihydroxytetratriaconta-16,19,23,25,27,31-hexaenoic acid]
- protection of neuronal cells from NMDA-induced toxicity (FIG. 11A) ([1]; 200 nM): potently protects neuronal cells
- cell death and cell viability with NMDA in increasing concentrations (FIG. 11) ([1]; neuronal cultures, MTT): reduces cell death and increases cell viability
- effect on Bcl2 protein (FIG. 9) (Bcl2): potent upregulation

SMILES: CC/C=C\C/C=C\C/C=C\C/C=C\C/C=C\C/C=C\CCCCCCCCCCCCCCC(=O)O [C34:6]
- concentration dependent cytoprotection (FIG. 5C) (ARPE-19 cells; 250 nM): very good intermediate effect
- concentration dependent cytoprotection (FIG. 5C) (ARPE-19 cells; 500 nM): maximum effect
- protection against OS in RPE cells (summary, FIGS. 4-10) (ARPE-19 cells; RPE cells): protective against OS
- concentration dependent cytoprotection (FIG. 5C) (ARPE-19 cells; starting from 50 nM): gradual decrease of cell deaths
- neuroprotection (FIG. 5A) (ARPE-19 cells; stressed ARPE-19 cells treated with 5 μm of 15-LOX-D1 inhibitor PD146176): 48%
